Data on 18 compounds can be found in ChEMBL document CHEMBL3991601, “The target landscape of clinical kinase drugs” (Science, 2017).

For orientation: Kd means the concentration at which binding is half-saturated.

Structures can show the parent of a compound that is named as a salt. Activity calls are given as the source filed them.

Assay [1] deals with T1, Cytochrome c1, heme protein, mitochondrial (Homo sapiens, UniProt P08574).
T1 sequence (P08574 whole entry): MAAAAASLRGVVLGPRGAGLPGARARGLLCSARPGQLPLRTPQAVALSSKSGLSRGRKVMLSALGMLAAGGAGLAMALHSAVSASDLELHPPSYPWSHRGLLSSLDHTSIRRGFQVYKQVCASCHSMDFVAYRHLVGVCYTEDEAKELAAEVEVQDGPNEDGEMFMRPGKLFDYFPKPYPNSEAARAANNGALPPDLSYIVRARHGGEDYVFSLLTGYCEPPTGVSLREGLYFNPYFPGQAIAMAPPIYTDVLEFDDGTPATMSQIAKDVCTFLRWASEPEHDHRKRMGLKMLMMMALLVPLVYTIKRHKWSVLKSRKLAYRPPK

The target in assay [2] is Elongation factor Tu, mitochondrial (Homo sapiens, UniProt P49411).
Assay [3] concerns the target T2, Serine/threonine-protein kinase TAO3 (Homo sapiens, UniProt Q9H2K8).
T2 sequence (Q9H2K8 whole entry): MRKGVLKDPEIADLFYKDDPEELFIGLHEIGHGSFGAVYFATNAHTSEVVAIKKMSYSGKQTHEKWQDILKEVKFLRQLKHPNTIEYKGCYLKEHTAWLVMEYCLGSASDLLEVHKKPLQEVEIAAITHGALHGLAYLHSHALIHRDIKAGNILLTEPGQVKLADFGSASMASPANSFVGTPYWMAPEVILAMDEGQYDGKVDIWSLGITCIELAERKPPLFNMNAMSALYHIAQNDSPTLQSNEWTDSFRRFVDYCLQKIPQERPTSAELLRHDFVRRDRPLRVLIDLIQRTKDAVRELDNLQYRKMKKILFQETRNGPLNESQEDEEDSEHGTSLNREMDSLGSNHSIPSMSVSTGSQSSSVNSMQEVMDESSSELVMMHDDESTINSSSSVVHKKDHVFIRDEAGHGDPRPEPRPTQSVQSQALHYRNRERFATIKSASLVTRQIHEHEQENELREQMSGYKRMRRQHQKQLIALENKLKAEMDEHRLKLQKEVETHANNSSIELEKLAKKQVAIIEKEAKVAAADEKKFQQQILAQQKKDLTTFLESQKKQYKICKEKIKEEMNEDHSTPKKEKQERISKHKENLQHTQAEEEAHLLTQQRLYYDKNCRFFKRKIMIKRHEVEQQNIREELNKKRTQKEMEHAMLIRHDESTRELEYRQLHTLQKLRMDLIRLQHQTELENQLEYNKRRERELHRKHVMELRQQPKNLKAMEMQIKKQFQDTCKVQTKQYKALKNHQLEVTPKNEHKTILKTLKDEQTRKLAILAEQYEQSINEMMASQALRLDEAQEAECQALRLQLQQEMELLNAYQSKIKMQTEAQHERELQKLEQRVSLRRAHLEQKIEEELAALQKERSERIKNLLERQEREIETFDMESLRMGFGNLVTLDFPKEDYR

Assay [4] addresses Myosin-14 (Homo sapiens, UniProt Q7Z406).
The target in assay [5] is T3, Tyrosine-protein kinase Tec (Homo sapiens, UniProt P42680).
T3 sequence (P42680 whole entry): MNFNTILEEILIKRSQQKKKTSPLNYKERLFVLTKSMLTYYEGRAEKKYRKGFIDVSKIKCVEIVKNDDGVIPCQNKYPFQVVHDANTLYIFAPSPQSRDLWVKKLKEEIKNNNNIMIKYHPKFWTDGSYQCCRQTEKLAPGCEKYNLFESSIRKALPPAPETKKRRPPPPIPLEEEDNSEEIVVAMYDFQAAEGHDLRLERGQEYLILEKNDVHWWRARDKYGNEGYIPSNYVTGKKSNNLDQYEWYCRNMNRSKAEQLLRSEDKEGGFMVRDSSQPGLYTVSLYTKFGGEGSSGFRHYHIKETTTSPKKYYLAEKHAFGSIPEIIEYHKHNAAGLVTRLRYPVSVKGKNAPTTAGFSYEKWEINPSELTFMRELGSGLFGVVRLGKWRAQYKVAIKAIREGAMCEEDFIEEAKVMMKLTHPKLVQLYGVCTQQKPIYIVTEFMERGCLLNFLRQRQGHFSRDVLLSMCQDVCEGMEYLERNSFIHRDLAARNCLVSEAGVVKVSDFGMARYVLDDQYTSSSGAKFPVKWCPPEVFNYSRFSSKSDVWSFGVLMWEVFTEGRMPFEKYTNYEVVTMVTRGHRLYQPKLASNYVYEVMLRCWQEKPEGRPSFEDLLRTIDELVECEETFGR

For assay [6], the target named is NADH dehydrogenase [ubiquinone] 1 alpha subcomplex subunit 13 (Homo sapiens, UniProt Q9P0J0).
Sequence of NADH dehydrogenase [ubiquinone] 1 alpha subcomplex subunit 13 (Q9P0J0 whole entry, one chain of several): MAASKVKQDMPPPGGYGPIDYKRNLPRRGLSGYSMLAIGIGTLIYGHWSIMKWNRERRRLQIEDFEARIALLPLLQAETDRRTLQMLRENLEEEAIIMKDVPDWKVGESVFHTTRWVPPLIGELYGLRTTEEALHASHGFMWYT
Assay [7] deals with Focal adhesion kinase 1 (Homo sapiens, UniProt Q05397).
Sequence of Focal adhesion kinase 1 (Q05397 whole entry): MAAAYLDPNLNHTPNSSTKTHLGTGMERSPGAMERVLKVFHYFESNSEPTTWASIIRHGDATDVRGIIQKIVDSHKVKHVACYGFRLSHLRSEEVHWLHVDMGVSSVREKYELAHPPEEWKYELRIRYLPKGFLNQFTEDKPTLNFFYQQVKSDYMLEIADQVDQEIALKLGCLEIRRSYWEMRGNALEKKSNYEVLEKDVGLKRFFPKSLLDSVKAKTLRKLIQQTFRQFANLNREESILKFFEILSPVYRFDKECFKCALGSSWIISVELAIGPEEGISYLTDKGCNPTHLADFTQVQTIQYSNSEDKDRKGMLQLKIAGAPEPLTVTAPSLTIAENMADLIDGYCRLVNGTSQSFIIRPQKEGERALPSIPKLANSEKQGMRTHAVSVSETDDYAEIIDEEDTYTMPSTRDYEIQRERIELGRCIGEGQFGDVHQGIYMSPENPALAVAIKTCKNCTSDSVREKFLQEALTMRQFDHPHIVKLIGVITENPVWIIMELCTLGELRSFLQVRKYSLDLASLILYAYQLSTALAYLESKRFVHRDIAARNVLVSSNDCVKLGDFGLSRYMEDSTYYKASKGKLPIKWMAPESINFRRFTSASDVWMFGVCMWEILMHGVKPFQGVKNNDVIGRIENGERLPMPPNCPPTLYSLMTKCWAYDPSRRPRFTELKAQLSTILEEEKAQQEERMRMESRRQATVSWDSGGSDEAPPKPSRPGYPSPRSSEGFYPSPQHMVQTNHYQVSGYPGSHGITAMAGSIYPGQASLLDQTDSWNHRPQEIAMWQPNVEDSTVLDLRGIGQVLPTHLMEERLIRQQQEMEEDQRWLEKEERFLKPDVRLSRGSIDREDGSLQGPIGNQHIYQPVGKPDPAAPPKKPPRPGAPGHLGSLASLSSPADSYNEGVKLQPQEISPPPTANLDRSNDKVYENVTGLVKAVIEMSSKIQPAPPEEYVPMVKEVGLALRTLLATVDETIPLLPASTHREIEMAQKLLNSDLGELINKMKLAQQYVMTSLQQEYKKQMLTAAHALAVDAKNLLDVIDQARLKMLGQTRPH
The target of assay [8] is Serine/threonine-protein kinase N2 (Homo sapiens, UniProt Q16513).
Sequence of Serine/threonine-protein kinase N2 (Q16513 whole entry): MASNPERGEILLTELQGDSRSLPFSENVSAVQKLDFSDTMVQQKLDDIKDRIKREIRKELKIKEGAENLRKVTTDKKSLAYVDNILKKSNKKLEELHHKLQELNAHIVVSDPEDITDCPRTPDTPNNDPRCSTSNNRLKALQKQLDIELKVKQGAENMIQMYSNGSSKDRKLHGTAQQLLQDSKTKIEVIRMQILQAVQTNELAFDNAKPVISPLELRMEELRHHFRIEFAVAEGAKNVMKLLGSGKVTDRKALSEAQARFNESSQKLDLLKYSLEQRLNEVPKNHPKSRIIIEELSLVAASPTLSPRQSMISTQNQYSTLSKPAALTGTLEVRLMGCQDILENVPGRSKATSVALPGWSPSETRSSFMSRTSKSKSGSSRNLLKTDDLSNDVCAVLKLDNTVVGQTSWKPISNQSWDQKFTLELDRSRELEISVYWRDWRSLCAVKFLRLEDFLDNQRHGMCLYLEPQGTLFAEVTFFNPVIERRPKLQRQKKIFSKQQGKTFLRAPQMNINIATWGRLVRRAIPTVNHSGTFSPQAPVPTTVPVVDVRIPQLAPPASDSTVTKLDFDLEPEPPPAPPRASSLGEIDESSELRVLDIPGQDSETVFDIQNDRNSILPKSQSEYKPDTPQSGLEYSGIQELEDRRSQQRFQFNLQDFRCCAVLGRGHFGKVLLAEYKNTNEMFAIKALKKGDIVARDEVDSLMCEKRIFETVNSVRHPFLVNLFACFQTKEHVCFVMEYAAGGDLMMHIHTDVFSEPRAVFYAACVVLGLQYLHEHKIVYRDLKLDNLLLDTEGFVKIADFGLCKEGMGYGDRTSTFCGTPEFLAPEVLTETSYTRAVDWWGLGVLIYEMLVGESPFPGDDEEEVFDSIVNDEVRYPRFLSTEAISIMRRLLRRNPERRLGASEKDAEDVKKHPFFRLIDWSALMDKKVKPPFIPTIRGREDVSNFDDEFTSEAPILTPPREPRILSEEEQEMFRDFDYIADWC
Note: in the data inactive means no Kd found up to 30 µM.

Sequence of Myosin-14 (Q7Z406 whole entry): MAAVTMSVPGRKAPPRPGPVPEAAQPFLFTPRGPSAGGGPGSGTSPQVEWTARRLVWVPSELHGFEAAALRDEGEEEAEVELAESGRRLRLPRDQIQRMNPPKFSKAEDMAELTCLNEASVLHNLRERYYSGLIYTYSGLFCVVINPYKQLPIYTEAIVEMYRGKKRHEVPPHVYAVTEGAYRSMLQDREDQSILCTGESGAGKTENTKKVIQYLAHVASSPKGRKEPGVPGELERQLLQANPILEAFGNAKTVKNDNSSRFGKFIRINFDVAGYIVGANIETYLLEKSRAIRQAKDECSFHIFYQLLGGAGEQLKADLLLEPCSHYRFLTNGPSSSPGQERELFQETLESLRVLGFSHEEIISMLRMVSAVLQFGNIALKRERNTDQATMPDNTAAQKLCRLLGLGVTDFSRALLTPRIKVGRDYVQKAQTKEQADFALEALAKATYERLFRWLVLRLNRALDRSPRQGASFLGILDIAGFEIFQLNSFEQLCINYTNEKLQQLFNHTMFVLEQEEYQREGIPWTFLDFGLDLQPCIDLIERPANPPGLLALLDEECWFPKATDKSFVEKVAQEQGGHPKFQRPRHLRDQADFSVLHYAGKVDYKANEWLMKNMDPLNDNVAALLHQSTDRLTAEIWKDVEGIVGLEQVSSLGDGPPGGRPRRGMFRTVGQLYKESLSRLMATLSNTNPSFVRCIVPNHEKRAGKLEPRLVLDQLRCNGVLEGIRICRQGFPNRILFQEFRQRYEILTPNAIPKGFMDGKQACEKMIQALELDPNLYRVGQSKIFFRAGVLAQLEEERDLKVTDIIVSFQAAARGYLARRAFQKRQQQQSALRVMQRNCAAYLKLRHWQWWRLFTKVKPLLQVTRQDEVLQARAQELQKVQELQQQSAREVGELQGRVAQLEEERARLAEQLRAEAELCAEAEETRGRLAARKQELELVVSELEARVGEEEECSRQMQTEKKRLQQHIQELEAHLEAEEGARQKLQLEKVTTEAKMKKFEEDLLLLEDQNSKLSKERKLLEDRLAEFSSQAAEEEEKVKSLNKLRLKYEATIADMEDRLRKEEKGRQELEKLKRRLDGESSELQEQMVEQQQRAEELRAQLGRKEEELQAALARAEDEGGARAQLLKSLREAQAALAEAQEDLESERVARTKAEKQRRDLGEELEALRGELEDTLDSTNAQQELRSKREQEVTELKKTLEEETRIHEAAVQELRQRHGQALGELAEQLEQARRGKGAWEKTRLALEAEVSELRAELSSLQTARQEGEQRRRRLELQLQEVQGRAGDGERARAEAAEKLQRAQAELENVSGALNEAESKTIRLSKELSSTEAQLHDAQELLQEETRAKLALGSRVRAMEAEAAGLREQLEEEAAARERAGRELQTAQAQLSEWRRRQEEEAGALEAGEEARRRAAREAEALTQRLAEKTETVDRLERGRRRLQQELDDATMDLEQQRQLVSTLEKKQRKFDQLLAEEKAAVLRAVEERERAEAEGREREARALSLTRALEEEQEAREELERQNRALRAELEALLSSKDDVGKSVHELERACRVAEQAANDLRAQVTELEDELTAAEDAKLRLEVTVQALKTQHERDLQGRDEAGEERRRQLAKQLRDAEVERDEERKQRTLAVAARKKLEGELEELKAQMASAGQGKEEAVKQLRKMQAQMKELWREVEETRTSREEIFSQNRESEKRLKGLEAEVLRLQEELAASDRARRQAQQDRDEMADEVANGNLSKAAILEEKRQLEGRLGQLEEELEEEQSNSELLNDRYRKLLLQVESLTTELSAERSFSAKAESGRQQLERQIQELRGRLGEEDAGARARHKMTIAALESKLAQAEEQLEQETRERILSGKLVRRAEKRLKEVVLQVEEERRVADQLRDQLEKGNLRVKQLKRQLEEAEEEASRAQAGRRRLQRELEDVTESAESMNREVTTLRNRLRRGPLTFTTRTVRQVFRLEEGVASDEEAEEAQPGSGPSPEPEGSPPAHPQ

`COc1cc(Nc2ncc3c(n2)-c2ccc(Cl)cc2C(c2c(F)cccc2OC)=NC3)ccc1C(=O)O` [ALISERTIB]: the Kd in assay [1] was > 30 µM (inactive); in assay [2], > 30 µM (inactive); in assay [3] it was > 30 µM (inactive); in assay [4] it was > 30 µM (inactive); in assay [5], > 30 µM (inactive); in assay [6] it was 3.92 µM.

Turning to `Cc1nc(NC(=O)N2CCC[C@H]2C(N)=O)sc1-c1ccnc(C(C)(C)C(F)(F)F)c1` [ALPELISIB], the Kd in assay [1], in assay [2], in assay [3], in assay [4], in assay [7] and in assay [8] was > 30 µM (inactive) in each case. The Kd in assay [5] was > 30 µM (inactive).

As for `Cc1csc(-c2nnc(Nc3ccc(Oc4ncccc4-c4ccnc(N)n4)cc3)c3ccccc23)c1` [AMG-900], the Kd is > 30 µM (inactive) in assay [1]; > 30 µM (inactive) in assay [2]; 1.77 µM (active) in assay [3]; > 30 µM (inactive) in assay [4]; > 30 µM (inactive) in assay [7]; > 30 µM (inactive) in assay [8]. In assay [5], the Kd was > 30 µM (inactive).

For the compound `O=C(Nc1c[nH]nc1-c1nc2cc(CN3CCOCC3)ccc2[nH]1)NC1CC1` [AT-9283], the Kd is > 30 µM (inactive) in assay [1]; > 30 µM (inactive) in assay [2]; > 30 µM (inactive) in assay [3]; > 30 µM (inactive) in assay [4]; > 30 µM (inactive) in assay [7]; 2.77 µM (active) in assay [8]. In assay [6], the Kd was > 30 µM (inactive).

As to `C=CC(=O)Nc1cc2c(Nc3ccc(F)c(Cl)c3)ncnc2cc1C#CC(C)(C)N1CCN(C)CC1` [AV-412 FREE BASE], the Kd in assay [1] is > 30 µM (inactive); in assay [2], > 30 µM (inactive); in assay [3], > 30 µM (inactive); in assay [7], > 30 µM (inactive); in assay [8], > 30 µM (inactive); in assay [5], 0.422 µM (active). Moreover, the Kd in assay [6] is > 30 µM (inactive).

Regarding `CNC(=O)c1ccccc1Sc1ccc2c(/C=C/c3ccccn3)n[nH]c2c1` [AXITINIB], the Kd in assay [1], in assay [2], in assay [4] and in assay [6] was > 30 µM (inactive) each time.

Consider `Cc1cc(Nc2ncc(Cl)c(Nc3ccccc3S(=O)(=O)C(C)C)n2)c(OC(C)C)cc1C1CCNCC1` [CERITINIB], for which the Kd in assay [1], in assay [2], in assay [3], in assay [4], in assay [8] and in assay [5] was > 30 µM (inactive) throughout. Further, the Kd in assay [6] is > 30 µM (inactive).

For `CCS(=O)(=O)N1CCN(c2ccc(Nc3ncc(C(N)=O)c(NC4CC4)n3)cc2)CC1` [Cerdulatinib Hydrochloride], the Kd was > 30 µM (inactive) in assay [1]; > 30 µM (inactive) in assay [2]; 8.26 µM (active) in assay [3]; > 30 µM (inactive) in assay [7]; > 30 µM (inactive) in assay [8]; > 30 µM (inactive) in assay [5]. In addition, in assay [6], the Kd was > 30 µM (inactive).

`Cn1cc(C2=C(c3cn(C4CCN(Cc5ccccn5)CC4)c4ccccc34)C(=O)NC2=O)c2ccccc21` [ENZASTAURIN]: the Kd in assay [1], in assay [2], in assay [4] and in assay [6] was > 30 µM (inactive) each time.

In the case of `C[C@@H](Oc1cc(-n2cnc3ccc(CN4CCN(C)CC4)cc32)sc1C(N)=O)c1ccccc1C(F)(F)F` [GSK-461364], the Kd in assay [1], in assay [2], in assay [4] and in assay [6] was > 30 µM (inactive) in each case.

Consider `Cc1[nH]c(/C=C2\C(=O)Nc3ccccc32)c(C)c1CCC(=O)O` [ORANTINIB], for which the Kd in assay [1], in assay [2], in assay [3], in assay [4], in assay [5] and in assay [6] was > 30 µM (inactive) each time.

In the case of `NC(=O)c1c(OCc2c(F)cc(Br)cc2F)nsc1NC(=O)NCCCCN1CCCC1` [OSI-632], the Kd in assay [1], in assay [2], in assay [4], in assay [5] and in assay [6] was > 30 µM (inactive) each time.

Regarding `CCOc1cc2ncc(C#N)c(Nc3ccc(F)c(Cl)c3)c2cc1NC(=O)/C=C/CN(C)C` [PELITINIB], the Kd in assay [1], in assay [2], in assay [3], in assay [4], in assay [8] and in assay [5] was > 30 µM (inactive) in each case. In addition, the Kd in assay [6] was > 30 µM (inactive).

As to `CC(=O)NCC(=O)N1[C@@H]2CC[C@H]1c1ccc(Nc3ncc(C(F)(F)F)c(NC4CCC4)n3)cc12` [PF-03814735], the Kd is > 30 µM (inactive) in assay [1], > 30 µM (inactive) in assay [2], 2.4 µM (active) in assay [3] and 2.32 µM (active) in assay [5].

`O=C(NOCCO)c1cc(CN2OCCCC2=O)c(F)c(F)c1Nc1ccc(I)cc1F` [RO-4987655]: the Kd in assay [1], in assay [2], in assay [4] and in assay [6] was > 30 µM (inactive) throughout.

Consider `N#CC[C@H](C1CCCC1)n1cc(-c2ncnc3[nH]ccc23)cn1` [RUXOLITINIB], for which the Kd in assay [1], in assay [2], in assay [4] and in assay [6] was > 30 µM (inactive) each time.

On to `CO[C@H]1C[C@@H]2CC[C@@H](C)[C@@](O)(O2)C(=O)C(=O)N2CCCC[C@H]2C(=O)O[C@H]([C@H](C)C[C@@H]2CC[C@@H](O)[C@H](OC)C2)CC(=O)[C@H](C)/C=C(\C)[C@@H](O)[C@@H](OC)C(=O)[C@H](C)C[C@H](C)/C=C/C=C/C=C/1C` [SIROLIMUS], for which the Kd in assay [1], in assay [2], in assay [3], in assay [4], in assay [7] and in assay [8] was > 30 µM (inactive) each time. Further, in assay [5], the Kd is > 30 µM (inactive).

As to `Cn1ncc(Cl)c1-c1cc(C(=O)N[C@H](CN)Cc2ccc(F)c(F)c2)oc1Cl` [UPROSERTIB], the Kd in assay [1], in assay [2], in assay [3], in assay [4], in assay [7] and in assay [8] was > 30 µM (inactive) throughout. Further, the Kd in assay [5] was > 30 µM (inactive).
